Where “and” joins values, the source holds several entries; their conditions need not be identical. Equal entries are not always repeated. Where two headings read alike, the source gives them in different places.
Columns and labels:
[1] = Plasma OT pharmacokinetics after intravenous, nasal spray or nebulizer administration (radioimmunoassay after extraction); type: in vivo, humans; set-up: Plasma OT Concentration, individual participants: unit not given here; settings: for Plasma OT Concentration, individual participants: Condition IV (10 IU), source data of Fig. 6a; for Plasma OT Concentration, individual participants / Bioavailability, individual participants: unit not given; for Bioavailability, individual participants: source data of Fig. 6c, one row per participant; for AUC of plasmatic oxytocin post-dosing / Cmax: 40 IU OT; for AUC of plasmatic oxytocin post-dosing: trapezoidal rule, 120 min post-dosing; for Cmax: healthy men, plasma, radioimmunoassay, read-out: Cmax, maximum plasmatic concentration achieved after dosing
Text: For the intranasal administrations, participants self-administered a nominal dose of 40 IU OT (Syntocinon; 40IU/ml; Novartis, Basel, Switzerland), one of the highest clinically applicable doses. We have shown that 40IU delivered with a standard nasal spray induce robust rCBF changes in the human brain in a between-subjects, single-blind design study. For the intranasal administration, we used specially manufactured placebo that contained the same excipients as Syntocinon except for oxytocin.
The aerosol droplet size of three Syntocinon spray bottles was assessed by laser diffraction (Malvern Spraytec, Malvern Panalytical, Worcestershire, UK). The mass median diameter (MMD) of the aerosol plume was 37 ± 2.5 µm.
PARI SINUS nebulizer: Participants self-administered 40IU OT (Syntocinon) or placebo, by operating the SINUS nebulizer for 3 min in each nostril (6 min in total), according to instructions. The correct application of the device was confirmed by determining gravimetrically the administered volume. Participants were instructed to breathe using only their mouth and to keep a constant breath rate with their soft palate closed, to minimize delivery to the lungs. The PARI SINUS (PARI GmbH, Starnberg, Germany) is designed to deliver aerosolised drugs to the sinus cavities by ventilating the sinuses via pressure fluctuations. The SINUS nebulizer produces an aerosol with 3 µm MMD, which is superimposed with a 44 Hz pulsation frequency. […] The efficacy of this system was first shown in a scintigraphy study by ref. [76]. Since the entrance of the sinuses is located near the olfactory region, an improved delivery to the olfactory region was expected compared to nasal sprays. Other studies[32] have shown up to 9.0% (±1.9%) of the total administered dose to be delivered to the olfactory region, 15.7 (±2.4%) to the upper nose.
For the intravenous administration, we delivered 10IU OT (Syntocinon injection formulation, 10IU/ml, Alliance, UK) or saline via slow infusion over 10 min (1IU/min). A 50-ml syringe was loaded with either 32 ml of 0.9% sodium chloride (placebo) or 30 ml of 0.9% sodium chloride with […] of Syntocinon (10IU/ml). […] The ECG was monitored during the intravenous administration interval. We selected the intravenous dose and rate of administration to assure high plasmatic concentrations of OT throughout the observation period while restricting cardiovascular effects to tolerable and safe limits. A rate of 1IU per minute is typically used in caesarean sections and is considered to have minimised side effects[77],[78].
We collected plasma samples at baseline and at five timepoints post-dosing (as detailed in Fig. 1) to measure changes in the concentration of OT. Plasmatic OT was assayed by radioimmunoassay (RIAgnosis, Munich, Germany) after extraction, currently the gold-standard technique for OT quantifications in peripheral fluids. The detection limit of this assay is in the 0.5 pg/sample range. Cross-reactivity with vasopressin, ring moieties and terminal tripeptides of both OT and vasopressin and a wide variety of peptides comprising […] (alpha-melanocyte-stimulating hormone) up to 41 (corticotrophin-releasing factor) amino acids are <0.7% throughout. The intra- and inter-assay variabilities are <10%[80].
Pharmacokinetic analysis: From the plasmatic concentrations of OT at several timepoints after dosing we calculated the area under the curve (AUC) using the trapezoidal rule for each subject and session. AUC provides a single metric that reflects variations in plasma levels of OT concentration following OT/placebo administration for each session and each participant. […] Mean AUCs were compared between the three methods of administration with a repeated measures one-way analysis of variance, using the Greenhouse-Geisser correction against violations of sphericity. Post-hoc comparisons between methods were implemented using Tukey’s correction for multiple comparisons. […]

[2] = intraperitoneal administration, cited from earlier work
Text: With respect to changes in rCBF induced by the intravenous administration of OT, there may be three possible mediating mechanisms. First, it is possible that peripheral effects of OT on vegetative territories, such as the heart, may be an indirect source of changes in areas of the interoceptive/allostasis network in the human brain, where the dorsal amygdala and the pregenual anterior cingulate cortex assume the role of visceromotor hubs[43]. […] The delivery to the paranasal sinuses seems to be increased about 3-5x by using the aerosol pulsation deposition method implemented by the PARI sinus nebuliser(6, 7). The paranasal sinus mucosa is also innervated by the trigeminal nerve which is one of the pathways propo ...

[3] = intravenous infusion of labelled synthetic OT; cited from earlier work
Text: With respect to changes in rCBF induced by the intravenous administration of OT, there may be three possible mediating mechanisms. First, it is possible that peripheral effects of OT on vegetative territories, such as the heart, may be an indirect source of changes in areas of the interoceptive/allostasis network in the human brain, where the dorsal amygdala and the pregenual anterior cingulate cortex assume the role of visceromotor hubs[43].

[4] = cited from earlier work
Text: Human studies almost exclusively target the central OT system by administering synthetic OT using nasal sprays, despite a lack of understanding of the mechanisms underpinning its pharmacodynamic effects. […] The intranasal administration of OT has been favoured under the assumption that once in the nasal cavity, OT can reach the brain directly, bypassing the BBB[13]. […] The first mechanism po ...

CC[C@H](C)[C@@H]1NC(=O)[C@H](Cc2ccc(O)cc2)NC(=O)[C@@H](N)CSSC[C@@H](C(=O)N2CCC[C@H]2C(=O)N[C@@H](CC(C)C)C(=O)NCC(N)=O)NC(=O)[C@H](CC(N)=O)NC(=O)[C@H](CCC(N)=O)NC1=O [OT, oxytocin]
Plasma OT Concentration, individual participants ([1]; Sample 2): 65.12 and 59.67 and 47.11
Plasma OT Concentration, individual participants ([1]; Sample 3): 68.1
Plasma OT Concentration, individual participants ([1]; Sample 4): 30.93 and 53.9
Plasma OT Concentration, individual participants ([1]; Sample 6): 12.86 and 20.71
Plasma OT Concentration, individual participants ([1]; Sample 7): 7.3 and 7.23 and 4.61
Plasma OT Concentration, individual participants ([1]; Sample 8): 3.77
Time of peak plasma concentration ([1]; Intravenous, 10 IU): at the end of dosing
Time of peak plasma concentration ([1]; Nasal spray, 40 IU): at the end of dosing
Bioavailability, individual participants ([1]; Nebuliser 40 IU): 31.90 and 10.30 and 3.30 and 7.94 and 12.67 and 62.94 and 5.39 and 6.53 and 8.236 and 4.17 and 6.07 and 5.20 and 6.82 and 10.22 and 6.95 and 32.80
AUC of plasmatic oxytocin post-dosing ([1]; PARI SINUS nebulizer, mean (1 SEM)): 15.30 (2.14) pg.ml-1.h-1
Bioavailability, individual participants ([1]; Spray 40 IU): 6.85 and 11.96 and 5.38 and 16.81 and 5.32 and 6.16 and 8.93 and 4.67 and 8.4323 and 12.50 and 14.77 and 6.29 and 7.56 and 11.34 and 5.36 and 37.05
AUC of plasmatic oxytocin post-dosing ([1]; Standard nasal spray, mean (1 SEM)): 15.70 (1.97) pg.ml-1.h-1
Cmax ([1]; human, in vivo, inhaled or intranasal, 40 IU, PARI SINUS nebulizer, mean (1 SEM)): 0.0163 ng/mL
Cmax ([1]; human, in vivo, inhaled or intranasal, 40 IU, Standard nasal spray, mean (1 SEM)): 0.0158 ng/mL
Tmax ([1]; human, in vivo, inhaled or intranasal, Nebulizer, 40 IU, post-dosing, read-out: Time of peak plasma concentration (converted)): ~15 min
bioavailability ([1]; human, in vivo, inhaled or intranasal, Standard nasal spray 40 IU, dose-corrected AUC intranasal / dose-corrected AUC intravenous, mean (1 SEM), read-out: Absolute bioavailability of oxytocin absorbed to the plasma): 10.6%
OT concentration in brain extracellular fluid ([2]; wild-type and OT knockout mice): increased the concentration of OT in the extracellular fluid in the amygdala and dorsal hippocampus
Time the concentration in amygdala extracellular fluid remains elevated ([2]; ref Smith et al. 2019): about 1 h
Time to reach the extracellular fluid in the amygdala ([2]; ref Smith et al. 2019): ≤ 30 min
Synthetic OT levels in the CSF [3]: increased synthetic OT levels in the CSF
Crossing of the blood-brain barrier [4]: unable to cross the blood-brain barrier (BBB) in significant amounts
